Starred links: 1 amine or outer side, 2 acyl side, 3 side chain; linkers in the order of their positions; H or OH if unused. Positions of bridges follow the written chain, without caps; N, C: chain ends. Non-standard residues stand in square brackets, D forms with d. Residues, ends and D or L forms follow the SMILES beside them. ξ: configuration not given here. *: point of attachment. pTerphenylCO(4''-OnC5H11) = CCCCCOc1ccc(-c2ccc(-c3ccc(C(=O)*)cc3)cc2)cc1; Orn(4R-OH,5R-OH) = O=C([C@H](C[C@@H](O)[C@@H](O)N[*:3])N[*:1])[*:2]; hTyr(3S-OH,4S-OH) = N[C@H](C(=O)O)[C@H](O)[C@@H](O)c1ccc(O)cc1; Pro(3S-OH,4S-Me) = C[C@H]1CN[C@H](C(=O)O)[C@H]1O; ξPro(4R-OH) = O=C(O)C1C[C@@H](O)CN1
Tested on: Rat Primary Kidney Glomerular Endothelial cells
Assay: Oxygen and glucose deprivation followed by replenishment, cell survival (calcein AM), rat glomerular endothelial cells;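 for Survival rate (%): 100% is hypoxia control with glucose and 0% is untreated OGD control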
Format: cell-based
Experimental: Anidulafungin and micafungin were tested on Human Renal Glomerular Endothelial Cells (HRGEC, Innoprot P10665), on Human Renal Proximal Tubular Epithelial Cells (HRPTEpiC, Innoprot P10662), on Human Astrocytes (HA, caltag SC-1800), on Human Cardiac Microvascular Endothelial Cells (HCMEC, Caltag SC-6000), on Human Hepatic Sinusoidal Endothelial Cells (HHSEC, Caltag SC-5000), on Rat Primary Kidney Glomerular Endothelial cells (Cellbiologics, RN-6014G) and on Bovine Brain Microvascular Endothelial Cells (BBMEC, Caltag SC-B100).
In a first phase, these isolated, purified and cryopreserved cells are thawed and multiplied according to the supplier's recommendations in T75 or T175 flasks pre-coated with 2 μg of fibronectin/[…] (CORNING) for HRGEC, HCMEC, HHSEC and BBMEC, or 2 μg poly-L-lysin/cm^2 (Caltag SC-0403) for HRPTEpiC and HA, or 15 mL/flask 175 cm^2 gelatin-based solution (Cellbiologics) in the presence of endothelial cell supplemented growth medium ECM (P60104, INNOPROT, Caltag, SC-1001) for HRGEC, HCMEC, HHSEC, RPKGEC or BBMEC, or astrocyte cell supplemented growth medium AM (Caltag SC-1801) for HA or epithelial cell supplemented growth medium EpiCM (P60106, INNOPROT) for HRPTEpiC, at 37° C. under 5% CO2 and saturated humidity until their confluency. They are then harvested by trypsinization according to the method described by the supplier for exactly 5 minutes and then reseeded in new flasks a maximum of three times.
To carry out the oxygen and glucose deprivation test followed by their replenishment, the cells will be seeded in 96-well black plates with transparent flat bottom (GREINER). Once a sufficient number of cells has been obtained to allow seeding of 2000 to 15000 cells per well of 96-well plates depending on the cell type, the cells are seeded in these 96-well plates previously coated with an extracellular matrix as listed above for the flasks. The cells are cultured for 5 to 8 days according to the cell type, in the presence of the same growth medium as in the flask as described above except for HRGEC and HRPTEpiC for which DMEM (DUTSCHER) with 1 g/L of supplemented glucose is used, at 37° C. under 5% CO2 and saturated humidity to obtain confluency.
On the first day of oxygen and glucose deprivation, (5th, 6th, 7th or 8th day of culture), the culture conditions are drastically changed. The medium of all plates is removed and replaced by DMEM (DUTSCHER) medium without glucose and supplemented only with 1% penicillin-streptomycin (DUTSCHER). Anidulafungin or micafungin dissolved in dimethyl sulfoxide (DMSO) is then added to each well at the desired concentration, resulting in a maximum of 1% DMSO, and the plates are placed under hypoxia at <1% 02 and 5% CO2 at 37° C. for 24 hours of culture. Each compound was tested in a concentration range.
After 24 hours, the growth medium is changed and replaced by a richer medium, DMEM (DUTSCHER) at 1 g/L glucose and 2% FBS (INNOPROT) and 1% penicillin-streptomycin (DUTSCHER). These media will have been pre-equilibrated at 37° C. in advance. The cells are then returned to culture at 37° C. under 20% 02 and 5% CO2 for 22h.
After 22 hours of reoxygenation, the potential protective effect of anidulafungin or micafungin is measured by a cell viability test using calcein AM (CORNING), which is a dye substrate. The calcein AM can easily cross the cell membrane of the viable cells. The AM ester groups mask the part of the molecule that chelates calcium. Once inside the cells, the (non-fluorescent) calcein AM is hydrolyzed to (fluorescent) calcein by endogenous esterases. The resulting calcein molecule binds to calcium inside the cell and remains trapped inside the cell. These molecules emit strong green fluorescence when subjected to […] of a particular wavelength (495 nm). Since dead cells lack esterase activity, only living cells are labelled.
This cell viability test is performed in two steps. […]

[1] = [Anidulafungin] log μM 0.1760913
[2] = [Anidulafungin] log μM 0.4771213
[3] = [Anidulafungin] log μM 0.7781513
[4] = [Anidulafungin] log μM 0.845098
[5] = [Anidulafungin] log μM 0.9542425
[6] = [Anidulafungin] log μM −0.154902
[7] = [Anidulafungin] log μM −0.30103
[8] = [Anidulafungin] log μM −0.5228788

For `CCCCCOc1ccc(-c2ccc(-c3ccc(C(=O)N[C@H]4C[C@@H](O)[C@@H](O)NC(=O)[C@@H]5[C@@H](O)[C@@H](C)CN5C(=O)[C@H]([C@@H](C)O)NC(=O)[C@H]([C@H](O)[C@@H](O)c5ccc(O)cc5)NC(=O)C5C[C@@H](O)CN5C(=O)[C@H]([C@@H](C)O)NC4=O)cc3)cc2)cc1` (stereo partly drawn) [Anidulafungin] ({pTerphenylCO(4''-OnC5H11)}-[Orn(4R-OH,5R-OH)]T[ξPro(4R-OH)][hTyr(3S-OH,4S-OH)]T[Pro(3S-OH,4S-Me)]; lactam 1-C), the “Globalfluo assay 1” value ([Anidulafungin] log μM 0) was 2763556 arbitrary units, the “Globalfluo assay 2” value ([Anidulafungin] log μM 0) was 3715544 arbitrary units and the “Globalfluo assay 3” value ([Anidulafungin] log μM 0) was 3395182 arbitrary units. The Mean globalfluo ([Anidulafungin] log μM 0) was 3291427 arbitrary units, the “Survival rate (%)” value ([Anidulafungin] log μM 0) was −1% and the “Globalfluo assay 1” value [1] was 4125220 arbitrary units. For the same compound, the “Globalfluo assay 2” value [1] was 3558016 arbitrary units, the “Globalfluo assay 3” value [1] was 4929089 arbitrary units and the Mean globalfluo [1] was 4204108 arbitrary units. The “Survival rate (%)” value [1] was 3%, the “Globalfluo assay 1” value ([Anidulafungin] log μM 0.30103) was 6944934 arbitrary units and the “Globalfluo assay 2” value ([Anidulafungin] log μM 0.30103) was 4307906 arbitrary units. The “Globalfluo assay 3” value ([Anidulafungin] log μM 0.30103) was 5211398 arbitrary units, the Mean globalfluo ([Anidulafungin] log μM 0.30103) was 5488079 arbitrary units and the “Survival rate (%)” value ([Anidulafungin] log μM 0.30103) was 8%. The “Globalfluo assay 1” value ([Anidulafungin] log μM 0.39794) was 7911533 arbitrary units, the “Globalfluo assay 2” value ([Anidulafungin] log μM 0.39794) was 3661322 arbitrary units and the “Globalfluo assay 3” value ([Anidulafungin] log μM 0.39794) was 9914104 arbitrary units. The Mean globalfluo ([Anidulafungin] log μM 0.39794) was 7162320 arbitrary units, the “Survival rate (%)” value ([Anidulafungin] log μM 0.39794) was 15% and the “Globalfluo assay 1” value [2] was 5124858 arbitrary units. For the same compound, the “Globalfluo assay 2” value [2] was 4212586 arbitrary units, the “Globalfluo assay 3” value [2] was 3823154 arbitrary units and the Mean globalfluo [2] was 4386866 arbitrary units. For the same compound, the “Survival rate (%)” value [2] was 4%, the “Globalfluo assay 1” value ([Anidulafungin] log μM 0.60206) was 7387656 arbitrary units and the “Globalfluo assay 2” value ([Anidulafungin] log μM 0.60206) was 4239781 arbitrary units. For the same compound, the “Globalfluo assay 3” value ([Anidulafungin] log μM 0.60206) was 4439823 arbitrary units, the Mean globalfluo ([Anidulafungin] log μM 0.60206) was 5355753 arbitrary units and the “Survival rate (%)” value ([Anidulafungin] log μM 0.60206) was 7%. For the same compound, the “Globalfluo assay 1” value ([Anidulafungin] log μM 0.69897) was 10033620 arbitrary units, the “Globalfluo assay 2” value ([Anidulafungin] log μM 0.69897) was 4718363 arbitrary units and the “Globalfluo assay 3” value ([Anidulafungin] log μM 0.69897) was 7321110 arbitrary units. The Mean globalfluo ([Anidulafungin] log μM 0.69897) was 7357698 arbitrary units, the “Survival rate (%)” value ([Anidulafungin] log μM 0.69897) was 16% and the “Globalfluo assay 1” value [3] was 10219130 arbitrary units. The “Globalfluo assay 2” value [3] was 11308900 arbitrary units, the “Globalfluo assay 3” value [3] was 8342703 arbitrary units and the Mean globalfluo [3] was 9956911 arbitrary units. For the same compound, the “Survival rate (%)” value [3] was 26%, the “Globalfluo assay 1” value [4] was 10949560 arbitrary units and the “Globalfluo assay 2” value [4] was 9736722 arbitrary units. For the same compound, the “Globalfluo assay 3” value [4] was 8273113 arbitrary units, the Mean globalfluo [4] was 9653132 arbitrary units and the “Survival rate (%)” value [4] was 25%. The “Globalfluo assay 1” value ([Anidulafungin] log μM 0.90309) was 15350400 arbitrary units, the “Globalfluo assay 2” value ([Anidulafungin] log μM 0.90309) was 11785650 arbitrary units and the “Globalfluo assay 3” value ([Anidulafungin] log μM 0.90309) was 7401575 arbitrary units. The Mean globalfluo ([Anidulafungin] log μM 0.90309) was 11512542 arbitrary units, the “Survival rate (%)” value ([Anidulafungin] log μM 0.90309) was 32% and the “Globalfluo assay 1” value [5] was 9960942 arbitrary units. The “Globalfluo assay 2” value [5] was 10967130 arbitrary units, the “Globalfluo assay 3” value [5] was 15364830 arbitrary units and the Mean globalfluo [5] was 12097634 arbitrary units. The “Survival rate (%)” value [5] was 35%, the “Globalfluo assay 1” value [6] was 3628425 arbitrary units and the “Globalfluo assay 2” value [6] was 3463582 arbitrary units. The “Globalfluo assay 3” value [6] was 3208621 arbitrary units, the Mean globalfluo [6] was 3433543 arbitrary units and the “Survival rate (%)” value [6] was 0%. For the same compound, the “Globalfluo assay 1” value [7] was 2638281 arbitrary units, the “Globalfluo assay 2” value [7] was 3646882 arbitrary units and the “Globalfluo assay 3” value [7] was 3842217 arbitrary units. The Mean globalfluo [7] was 3375793 arbitrary units, the “Survival rate (%)” value [7] was −1% and the “Globalfluo assay 1” value [8] was 3892260 arbitrary units. For the same compound, the “Globalfluo assay 2” value [8] was 3780606 arbitrary units, the “Globalfluo assay 3” value [8] was 4016223 arbitrary units and the Mean globalfluo [8] was 3896363 arbitrary units. The “Survival rate (%)” value [8] was 2%, the “Globalfluo assay 1” value ([Anidulafungin] log μM −1) was 3282790 arbitrary units and the “Globalfluo assay 2” value ([Anidulafungin] log μM −1) was 3299018 arbitrary units. The “Globalfluo assay 3” value ([Anidulafungin] log μM −1) was 4299152 arbitrary units, the Mean globalfluo ([Anidulafungin] log μM −1) was 3626987 arbitrary units and the “Survival rate (%)” value ([Anidulafungin] log μM −1) was 0%. For the same compound, the “Globalfluo assay 1” value ([Anidulafungin] log μM −2) was 5018485 arbitrary units, the “Globalfluo assay 2” value ([Anidulafungin] log μM −2) was 4417533 arbitrary units and the “Globalfluo assay 3” value ([Anidulafungin] log μM −2) was 3450400 arbitrary units. The Mean globalfluo ([Anidulafungin] log μM −2) was 4295473 arbitrary units, the “Survival rate (%)” value ([Anidulafungin] log μM −2) was 3% and the “Globalfluo assay 1” value ([Anidulafungin] log μM −3) was 2824954 arbitrary units. For the same compound, the “Globalfluo assay 2” value ([Anidulafungin] log μM −3) was 3274736 arbitrary units, the “Globalfluo assay 3” value ([Anidulafungin] log μM −3) was 3773899 arbitrary units and the Mean globalfluo ([Anidulafungin] log μM −3) was 3291196 arbitrary units. The “Survival rate (%)” value ([Anidulafungin] log μM −3) was −1%.
